17 compounds from US20250223268A1, “4-Methylsulfonylbenzamide Compound, Preparation Method, Herbicidal Composition And Use” (Jiangsu Flag Chemical Industry Co., Ltd., priority 2022, published 2025) can be followed below.

Common to all, as to experiment: Greenhouse herbicidal activity assay, post-emergence
Holding throughout (format): in vivo

One assay has as its system Digitaria sanguinalis. To be noted: Post-emergence test, rate 150 g a.i./hm^2, grade by fresh weight inhibition rate; for pest or weed control at 150 g/ha: Digitaria sanguinalis, read-out: Control efficacy grade, Digitaria sanguinalis. The method, boiled down: (§1)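 Foliar spray at 3-6 leaves; pot-grown in nutrient soil in growth chamber; air-dried post-spray. Read-out at 14-21 d: fresh weight inhibition, graded A (≥80% to 100%) down to E (<20%); NT = not tested.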

A further assay deals with Leptochloa chinensis. To be noted: Post-emergence test, rate 150 g a.i./hm^2, grade by fresh weight inhibition rate; for pest or weed control at 150 g/ha: Dinebra chinensis, read-out: Control efficacy grade, Leptochloa chinensis. In short, it runs like this:
as §1

The subject of a further assay is Echinochloa crusgalli. The note with it: Post-emergence test, rate 150 g a.i./hm^2, grade by fresh weight inhibition rate; for pest or weed control at 150 g/ha: Echinochloa crus-galli, read-out: Control efficacy grade, Echinochloa crusgalli. The method, boiled down: as §1
In a further assay the test system is Cyperus iria. The note with it: Post-emergence test, rate 150 g a.i./hm^2, grade by fresh weight inhibition rate; for pest or weed control at 150 g/ha: Cyperus iria, read-out: Control efficacy grade, Cyperus iria. In short, it runs like this:
as §1

The next assay has as its system Eclipta prostrata. To be noted: Post-emergence test, rate 150 g a.i./hm^2, grade by fresh weight inhibition rate; for pest or weed control at 150 g/ha: Eclipta prostrata, read-out: Control efficacy grade, Eclipta prostrata. In short, it runs like this: as §1

Consider `CC(C)Sc1c(S(C)(=O)=O)ccc(C(=O)Nc2nnnn2C)c1Cl` [Compound 1-6], for which the “Control efficacy grade, Digitaria sanguinalis” value with Digitaria sanguinalis is given as “A (Fresh weight inhibition rate≥80% to 100%)”. Besides, the “Control efficacy grade, Leptochloa chinensis” value in the assay with Leptochloa chinensis is reported as “A (Fresh weight inhibition rate≥80% to 100%)”. Besides, in the assay with Echinochloa crusgalli, the “Control efficacy grade, Echinochloa crusgalli” value is given as “A (Fresh weight inhibition rate≥80% to 100%)”. The “Control efficacy grade, Cyperus iria” value with Cyperus iria was “A (Fresh weight inhibition rate≥80% to 100%)”. For the same compound, in the assay on Eclipta prostrata, the “Control efficacy grade, Eclipta prostrata” value is “A (Fresh weight inhibition rate≥80% to 100%)”.
Turning to `CCCCSc1c(S(C)(=O)=O)ccc(C(=O)Nc2nnnn2C)c1Cl` [Compound 1-11], the “Control efficacy grade, Digitaria sanguinalis” value in the assay on Digitaria sanguinalis is listed as “A (Fresh weight inhibition rate≥80% to 100%)”. In addition, in the assay on Leptochloa chinensis, the “Control efficacy grade, Leptochloa chinensis” value is listed as “A (Fresh weight inhibition rate≥80% to 100%)”. Also, the “Control efficacy grade, Echinochloa crusgalli” value in the assay on Echinochloa crusgalli is given as “A (Fresh weight inhibition rate≥80% to 100%)”. In addition, the “Control efficacy grade, Cyperus iria” value in the assay on Cyperus iria is on record as “A (Fresh weight inhibition rate≥80% to 100%)”. Further, in the assay on Eclipta prostrata, the “Control efficacy grade, Eclipta prostrata” value is recorded as “A (Fresh weight inhibition rate≥80% to 100%)”.
For `Cn1nnnc1NC(=O)c1ccc(S(C)(=O)=O)c(SCC2CC2)c1Cl` [Compound 1-27], the “Control efficacy grade, Digitaria sanguinalis” value with Digitaria sanguinalis is reported as “A (Fresh weight inhibition rate≥80% to 100%)”. In addition, the “Control efficacy grade, Leptochloa chinensis” value with Leptochloa chinensis is given as “A (Fresh weight inhibition rate≥80% to 100%)”. Moreover, the “Control efficacy grade, Echinochloa crusgalli” value in the assay with Echinochloa crusgalli is on record as “A (Fresh weight inhibition rate≥80% to 100%)”. In the assay on Cyperus iria, the “Control efficacy grade, Cyperus iria” value is on record as “A (Fresh weight inhibition rate≥80% to 100%)”. Moreover, the “Control efficacy grade, Eclipta prostrata” value in the assay with Eclipta prostrata was “A (Fresh weight inhibition rate≥80% to 100%)”.
`Cn1nnnc1NC(=O)c1ccc(S(C)(=O)=O)c(SC2CC2)c1Cl` [Compound 1-32]: the “Control efficacy grade, Digitaria sanguinalis” value in the assay on Digitaria sanguinalis was “A (Fresh weight inhibition rate≥80% to 100%)”. The “Control efficacy grade, Leptochloa chinensis” value in the assay on Leptochloa chinensis is “A (Fresh weight inhibition rate≥80% to 100%)”. Moreover, the “Control efficacy grade, Echinochloa crusgalli” value with Echinochloa crusgalli is “A (Fresh weight inhibition rate≥80% to 100%)”. In addition, the “Control efficacy grade, Cyperus iria” value in the assay on Cyperus iria is listed as “A (Fresh weight inhibition rate≥80% to 100%)”. Also, the “Control efficacy grade, Eclipta prostrata” value in the assay on Eclipta prostrata is “A (Fresh weight inhibition rate≥80% to 100%)”.
With `Cn1nnnc1NC(=O)c1ccc(S(C)(=O)=O)c(SCC(F)(F)F)c1Cl` [Compound 1-52], in the assay on Digitaria sanguinalis, the “Control efficacy grade, Digitaria sanguinalis” value is listed as “A (Fresh weight inhibition rate≥80% to 100%)”. Further, in the assay on Leptochloa chinensis, the “Control efficacy grade, Leptochloa chinensis” value is recorded as “A (Fresh weight inhibition rate≥80% to 100%)”. Besides, the “Control efficacy grade, Echinochloa crusgalli” value in the assay with Echinochloa crusgalli was “A (Fresh weight inhibition rate≥80% to 100%)”. Moreover, in the assay with Cyperus iria, the “Control efficacy grade, Cyperus iria” value is “A (Fresh weight inhibition rate≥80% to 100%)”. The “Control efficacy grade, Eclipta prostrata” value with Eclipta prostrata is recorded as “A (Fresh weight inhibition rate≥80% to 100%)”.
Regarding `Cn1nnnc1NC(=O)c1ccc(S(C)(=O)=O)c(S(=O)(=O)CC(F)(F)F)c1Cl` [Compound 1-56], the “Control efficacy grade, Digitaria sanguinalis” value with Digitaria sanguinalis is “A (Fresh weight inhibition rate≥80% to 100%)”. Also, in the assay on Leptochloa chinensis, the “Control efficacy grade, Leptochloa chinensis” value is “A (Fresh weight inhibition rate≥80% to 100%)”. In addition, the “Control efficacy grade, Echinochloa crusgalli” value in the assay with Echinochloa crusgalli is recorded as “A (Fresh weight inhibition rate≥80% to 100%)”. Besides, in the assay on Cyperus iria, the “Control efficacy grade, Cyperus iria” value is “A (Fresh weight inhibition rate≥80% to 100%)”. In the assay with Eclipta prostrata, the “Control efficacy grade, Eclipta prostrata” value was “A (Fresh weight inhibition rate≥80% to 100%)”.
Regarding `C=CCSc1c(S(C)(=O)=O)ccc(C(=O)Nc2nnnn2C)c1Cl` [Compound 1-67], in the assay with Digitaria sanguinalis, the “Control efficacy grade, Digitaria sanguinalis” value was “A (Fresh weight inhibition rate≥80% to 100%)”. Also, in the assay on Leptochloa chinensis, the “Control efficacy grade, Leptochloa chinensis” value is on record as “A (Fresh weight inhibition rate≥80% to 100%)”. For the same compound, in the assay with Echinochloa crusgalli, the “Control efficacy grade, Echinochloa crusgalli” value is “A (Fresh weight inhibition rate≥80% to 100%)”. Moreover, in the assay with Cyperus iria, the “Control efficacy grade, Cyperus iria” value is listed as “A (Fresh weight inhibition rate≥80% to 100%)”. In addition, in the assay with Eclipta prostrata, the “Control efficacy grade, Eclipta prostrata” value is on record as “A (Fresh weight inhibition rate≥80% to 100%)”.
For `CCn1nnnc1NC(=O)c1ccc(S(C)(=O)=O)c([S+]([O-])C(C)C)c1Cl` (stereo not shown) [Compound 1-93, 2-chloro-N-(1-ethyl-1H-tetrazol-5-yl)-3-(isopropylsulfinyl)-4-(methylsulfonyl)benzamide], the pest or weed control at 150 g/ha in the assay on Digitaria sanguinalis, in the assay with Leptochloa chinensis, in the assay on Echinochloa crusgalli, in the assay with Cyperus iria and in the assay on Eclipta prostrata was 80 to 100% each time.
With `CCCSc1c(S(C)(=O)=O)ccc(C(=O)Nc2ncnn2C)c1Cl` [Compound 2-1], in the assay with Digitaria sanguinalis, the “Control efficacy grade, Digitaria sanguinalis” value is listed as “A (Fresh weight inhibition rate≥80% to 100%)”. Further, the “Control efficacy grade, Leptochloa chinensis” value in the assay on Leptochloa chinensis is on record as “A (Fresh weight inhibition rate≥80% to 100%)”. For the same compound, in the assay with Echinochloa crusgalli, the “Control efficacy grade, Echinochloa crusgalli” value is reported as “A (Fresh weight inhibition rate≥80% to 100%)”. Further, the “Control efficacy grade, Cyperus iria” value with Cyperus iria was “A (Fresh weight inhibition rate≥80% to 100%)”. In addition, the “Control efficacy grade, Eclipta prostrata” value in the assay with Eclipta prostrata is “A (Fresh weight inhibition rate≥80% to 100%)”.
In the case of `CCCS(=O)(=O)c1c(S(C)(=O)=O)ccc(C(=O)Nc2ncnn2C)c1Cl` [Compound 2-5], the “Control efficacy grade, Digitaria sanguinalis” value with Digitaria sanguinalis is “B (Fresh weight inhibition rate≥260% to <80%)”. The “Control efficacy grade, Leptochloa chinensis” value in the assay with Leptochloa chinensis was “A (Fresh weight inhibition rate≥80% to 100%)”. For the same compound, the “Control efficacy grade, Echinochloa crusgalli” value in the assay with Echinochloa crusgalli was “B (Fresh weight inhibition rate≥260% to <80%)”. Moreover, in the assay on Cyperus iria, the “Control efficacy grade, Cyperus iria” value is “A (Fresh weight inhibition rate≥80% to 100%)”. In the assay on Eclipta prostrata, the “Control efficacy grade, Eclipta prostrata” value was “A (Fresh weight inhibition rate≥80% to 100%)”.
For the compound `CC(C)Sc1c(S(C)(=O)=O)ccc(C(=O)Nc2ncnn2C)c1Cl` [Compound 2-6, 2-chloro-3-(isopropylthio)-N-(1-methyl-1H-1,2,4-triazol-5-yl)-4-(methylsulfonyl)benzamide], the pest or weed control at 150 g/ha lay within 80 to 260% with Digitaria sanguinalis; 80 to 100% in the assay on Leptochloa chinensis; 80 to 100% in the assay on Echinochloa crusgalli; 80 to 100% in the assay with Cyperus iria; 80 to 100% with Eclipta prostrata.
`Cn1ncnc1NC(=O)c1ccc(S(C)(=O)=O)c(SCC2CC2)c1Cl` [Compound 2-27]: the “Control efficacy grade, Digitaria sanguinalis” value with Digitaria sanguinalis is given as “A (Fresh weight inhibition rate≥80% to 100%)”. For the same compound, the “Control efficacy grade, Leptochloa chinensis” value in the assay on Leptochloa chinensis is reported as “A (Fresh weight inhibition rate≥80% to 100%)”. In addition, the “Control efficacy grade, Echinochloa crusgalli” value with Echinochloa crusgalli is “A (Fresh weight inhibition rate≥80% to 100%)”. Further, the “Control efficacy grade, Cyperus iria” value with Cyperus iria was “A (Fresh weight inhibition rate≥80% to 100%)”. The “Control efficacy grade, Eclipta prostrata” value in the assay with Eclipta prostrata was “A (Fresh weight inhibition rate≥80% to 100%)”.
Take `Cn1ncnc1NC(=O)c1ccc(S(C)(=O)=O)c(SC2CCC2)c1Cl` [Compound 2-37]: the “Control efficacy grade, Digitaria sanguinalis” value in the assay on Digitaria sanguinalis was “B (Fresh weight inhibition rate≥260% to <80%)”. In addition, the “Control efficacy grade, Leptochloa chinensis” value with Leptochloa chinensis was “A (Fresh weight inhibition rate≥80% to 100%)”. In addition, the “Control efficacy grade, Echinochloa crusgalli” value with Echinochloa crusgalli is recorded as “A (Fresh weight inhibition rate≥80% to 100%)”. The “Control efficacy grade, Cyperus iria” value with Cyperus iria is on record as “A (Fresh weight inhibition rate≥80% to 100%)”. Further, the “Control efficacy grade, Eclipta prostrata” value with Eclipta prostrata is on record as “A (Fresh weight inhibition rate≥80% to 100%)”.
Consider `C=CCSc1c(S(C)(=O)=O)ccc(C(=O)Nc2ncnn2C)c1Cl` [Compound 2-67], for which the “Control efficacy grade, Digitaria sanguinalis” value with Digitaria sanguinalis is “B (Fresh weight inhibition rate≥260% to <80%)”. The “Control efficacy grade, Leptochloa chinensis” value in the assay on Leptochloa chinensis is reported as “B (Fresh weight inhibition rate≥260% to <80%)”. In addition, the “Control efficacy grade, Echinochloa crusgalli” value in the assay with Echinochloa crusgalli is on record as “B (Fresh weight inhibition rate≥260% to <80%)”. Also, in the assay on Cyperus iria, the “Control efficacy grade, Cyperus iria” value is on record as “A (Fresh weight inhibition rate≥80% to 100%)”. In addition, the “Control efficacy grade, Eclipta prostrata” value in the assay with Eclipta prostrata is on record as “A (Fresh weight inhibition rate≥80% to 100%)”.
Turning to `C=CCS(=O)(=O)c1c(S(C)(=O)=O)ccc(C(=O)Nc2ncnn2C)c1Cl` [Compound 2-71], the “Control efficacy grade, Digitaria sanguinalis” value in the assay with Digitaria sanguinalis is reported as “A (Fresh weight inhibition rate≥80% to 100%)”. Further, the “Control efficacy grade, Leptochloa chinensis” value with Leptochloa chinensis was “A (Fresh weight inhibition rate≥80% to 100%)”. For the same compound, in the assay on Echinochloa crusgalli, the “Control efficacy grade, Echinochloa crusgalli” value is reported as “A (Fresh weight inhibition rate≥80% to 100%)”. The “Control efficacy grade, Cyperus iria” value in the assay with Cyperus iria is reported as “A (Fresh weight inhibition rate≥80% to 100%)”. In addition, the “Control efficacy grade, Eclipta prostrata” value in the assay with Eclipta prostrata is “A (Fresh weight inhibition rate≥80% to 100%)”.
For the compound `CCCSc1c(S(C)(=O)=O)ccc(C(=O)Nc2nnc(C)o2)c1Cl` [Compound 3-1], the “Control efficacy grade, Digitaria sanguinalis” value in the assay with Digitaria sanguinalis is “A (Fresh weight inhibition rate≥80% to 100%)”. Further, the “Control efficacy grade, Leptochloa chinensis” value with Leptochloa chinensis is reported as “A (Fresh weight inhibition rate≥80% to 100%)”. The “Control efficacy grade, Echinochloa crusgalli” value with Echinochloa crusgalli was “A (Fresh weight inhibition rate≥80% to 100%)”. Also, in the assay with Cyperus iria, the “Control efficacy grade, Cyperus iria” value is on record as “A (Fresh weight inhibition rate≥80% to 100%)”. The “Control efficacy grade, Eclipta prostrata” value with Eclipta prostrata was “A (Fresh weight inhibition rate≥80% to 100%)”.
As for `Cc1nnc(NC(=O)c2ccc(S(C)(=O)=O)c(SC(C)C)c2Cl)o1` [Compound 3-6, 2-chloro-3-(isopropylthio)-N-(5-methyl-1,3,4-oxadiazol-2-yl)-4-(methylsulfonyl)benzamide], the pest or weed control at 150 g/ha in the assay on Digitaria sanguinalis, in the assay with Leptochloa chinensis, in the assay with Echinochloa crusgalli, with Cyperus iria and with Eclipta prostrata was 80 to 100% each time.
